Experimental data as given in ChEMBL document CHEMBL1201862, “PubChem BioAssay data set” (2004).
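Grown in 96-well plates, cells were treated for 48 hours with each compound at five concentrations. Insufficient inhibition: endpoint recorded as highest concentration tested. GI50: concentration for 50% inhibition of growth.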 Active and inactive are the calls of the source. No stated cut-off is given here; in the data, active = GI50 up to about 1.1 µM and inactive = higher.

What was measured:
Experiment in all cases: inhibition of tumour cell growth, NCI panel, 48 h
HCT-116 = system: HCT-116
KM12 = system: KM12
HCT-15 = system: HCT-15
NCI-H522 = system: NCI-H522
SN12C = system: SN12C
OVCAR-5 = system: OVCAR-5
NCI-H23 = system: NCI-H23
SK-MEL-5 = system: SK-MEL-5
Malme-3M = system: Malme-3M
M19-MEL = system: M19-MEL
HCC 2998 = system: HCC 2998
SK-OV-3 = system: SK-OV-3
SNB-75 = system: SNB-75
A549 = system: A549
A498 = system: A498
COLO 205 = system: COLO 205
SF-539 = system: SF-539
T47D = system: T47D
PC-3 = system: PC-3
MDA-MB-231 = system: MDA-MB-231

Measured: GI50

NS(=O)(=O)c1ccc(NC(=O)c2cccc3c(=O)c4ccccc4[nH]c23)cc1
> 100 µM: HCT-15
inactive: HCT-116 32.4 µM | KM12 22.2 µM | NCI-H522 3.8 µM | SN12C 94.4 µM | OVCAR-5 > 100 µM | NCI-H23 67.3 µM | SK-MEL-5 65.5 µM | Malme-3M 24.7 µM | M19-MEL 73.3 µM | HCC 2998 > 100 µM | SK-OV-3 19.9 µM | SNB-75 15.3 µM | A549 > 100 µM | A498 51.3 µM | COLO 205 37.2 µM | SF-539 22.7 µM

CC(C)N(C(=O)C12C3C4C5C3C1(C(=O)O)C5C42)C(C)C (configuration not stated)
> 100 µM: HCT-15
inactive: HCT-116 > 100 µM | KM12 > 100 µM | NCI-H522 > 100 µM | SN12C > 100 µM | OVCAR-5 > 100 µM | NCI-H23 > 100 µM | SK-MEL-5 > 100 µM | Malme-3M > 100 µM | M19-MEL > 100 µM | HCC 2998 > 100 µM | SK-OV-3 > 100 µM | SNB-75 61.2 µM | A549 > 100 µM | A498 > 100 µM | COLO 205 > 100 µM | SF-539 > 100 µM

Cc1cc(O)nc(NN2C(Cl)C(=O)C2c2ccc(Cl)cc2)n1 (configuration not stated)
15.1 µM: HCT-15
inactive: HCT-116 11.3 µM | KM12 10.6 µM | SN12C 16.7 µM | OVCAR-5 40 µM | T47D 16.6 µM | NCI-H23 15.8 µM | SK-MEL-5 12.8 µM | Malme-3M 16.8 µM | M19-MEL 17.7 µM | HCC 2998 17 µM | SK-OV-3 41.8 µM | PC-3 32.7 µM | SNB-75 17.4 µM | MDA-MB-231 26.4 µM | A549 26.3 µM | A498 18.2 µM | COLO 205 17.2 µM | SF-539 16.3 µM

C=C1C(=O)C23C(O)C1CC[C@H]2C12CCCC(C)(COC(C)=O)[C@H]1[C@H](O)[C@]3(O)OC2 (some centres not stated)
inactive: KM12 2.37 µM | SN12C 1.71 µM | OVCAR-5 2.36 µM | T47D 1.3 µM | NCI-H23 1.87 µM | SK-MEL-5 1.72 µM | Malme-3M 1.42 µM | M19-MEL 2.01 µM | HCC 2998 1.85 µM | SK-OV-3 4.63 µM | PC-3 1.88 µM | SNB-75 1.53 µM | A549 3.94 µM | A498 2.32 µM | COLO 205 1.46 µM | SF-539 1.68 µM
0.817 µM: HCT-15
active: HCT-116 1.06 µM | NCI-H522 0.285 µM
